Here are results for two compounds from paper PMC11229689, “In Vitro Selection of Macrocyclic L-α/D-α/β/γ-Hybrid Peptides Targeting IFN-γ/IFNGR1 Protein–Protein Interaction” (Journal of the American Chemical Society, 2024).

*1 amine or outer side, *2 acyl side, *3 side chain or, on linkers, in order; H or OH if unused. Where a SMILES comes first, the peptide text is derived from it. Bridges are numbered along the chain shown (N, C = ends). [ ]: non-standard residue; d: D form. Acbc(cis-1,3) = O=C([C@H]1C[C@@H](N[*:1])C1)[*:2]; X1 = O=C([C@@H]1CCC[C@@H]1N[*:1])[*:2]; Orn = NCCC[C@H](N)C(=O)O

One data set addresses T1, Fc-tagged human IFNGR1 (Homo sapiens, UniProt P15260).
T1 construct: purchased ACROBiosystems
T1 sequence (P15260 18-489): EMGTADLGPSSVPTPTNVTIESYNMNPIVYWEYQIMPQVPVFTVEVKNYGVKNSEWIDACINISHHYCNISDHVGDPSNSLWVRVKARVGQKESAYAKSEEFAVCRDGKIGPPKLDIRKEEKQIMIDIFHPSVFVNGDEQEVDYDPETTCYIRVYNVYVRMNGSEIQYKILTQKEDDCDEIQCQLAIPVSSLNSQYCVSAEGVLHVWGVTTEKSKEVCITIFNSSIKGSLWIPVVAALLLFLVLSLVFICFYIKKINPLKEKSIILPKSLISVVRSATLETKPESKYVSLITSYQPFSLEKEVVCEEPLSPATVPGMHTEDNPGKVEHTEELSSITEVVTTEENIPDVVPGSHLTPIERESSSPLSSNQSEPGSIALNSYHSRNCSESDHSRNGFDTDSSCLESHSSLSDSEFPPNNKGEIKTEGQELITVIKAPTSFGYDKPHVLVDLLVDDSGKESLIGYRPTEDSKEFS
Kind of data set: Binding kinetics and affinity to IFNGR1 by surface plasmon resonance (SPR). The note with it: SPR, 25 °C, 1:1 binding model; for Kd: read-out: KD; for kon: single-cycle kinetics, read-out: ka. The essentials:
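Fc-tagged IFNGR1 captured on a protein G chip (1,200–1,600 RU), 25 °C, running buffer 10 mM Tris-HCl pH 8.0, 150 mM NaCl, 0.05% Tween 20, 0.1% DMSO. Single-cycle kinetics with five twofold-diluted peptide concentrations at 30 μL/min. Sensorgrams fitted to a 1:1 binding model for kinetic constants and affinity.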
Background: Surface plasmon resonance follows binding to a sensor surface in real time, without labels.

Data set [1] addresses T2, IFN-γ/IFNGR1 protein–protein interaction (Homo sapiens, UniProt P15260).
T2 construct: purchased ACROBiosystems
T2 sequence (P15260 18-245 limits assumed): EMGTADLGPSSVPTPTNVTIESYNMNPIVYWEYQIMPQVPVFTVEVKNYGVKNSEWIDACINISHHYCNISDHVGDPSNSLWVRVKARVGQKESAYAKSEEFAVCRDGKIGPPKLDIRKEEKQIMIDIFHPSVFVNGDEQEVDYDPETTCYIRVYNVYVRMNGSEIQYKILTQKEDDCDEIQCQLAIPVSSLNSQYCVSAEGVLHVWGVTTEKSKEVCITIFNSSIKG
Kind of data set: IFNGR1 inhibition assay using AlphaLISA. It counts as biochemical. The note with it: four-parameter dose–response fit, n = 3. A digest of the protocol: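 Fc-tagged IFNGR1 (added at 5 nM) was preincubated with peptide in AlphaLISA immunoassay buffer for 10 min at 25 °C, then biotin-IFN-γ (added at 15 nM) for 20 min, then human IgG acceptor and streptavidin donor beads for 30 min in the dark. Emission at 615 nm was read, with and without peptide giving the bound fraction. IC50 came from four-parameter fitting.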
A general note: Bead proximity is the source of the signal in Alpha formats.

The next data set has as its system HEK-Dual IFN-γ cells. The data set is described as follows: Cell viability assay (CCK-8). The note with it: up to 50 μM, 24 h incubation.
Data set [2] can be described thus: Serum stability assay (LC/MS). It counts as in vitro ADME, human. The note with it: human, human serum, 37 °C, LC/MS, relative to internal standard peptide, n = 3; read-out: half-life in human serum (t1/2) (converted). A digest of the protocol: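 Peptide (10–200 μM) co-incubated with 5 μM D-amino-acid internal standard peptide in human serum at 37 °C for up to 120 h. Samples methanol-quenched at each time point; remaining peptide quantified by reverse-phase LC/MS peak-area integration.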

Broadly, the Kd is a measure of binding affinity in units of concentration. Broadly, the IC50 is the concentration needed to halve the response being measured. Turning to `CC(C)[C@@H]1NC(=O)[C@@H](Cc2ccc(O)cc2)NC(=O)CSC[C@H](C(N)=O)NC(=O)[C@H](CC(N)=O)NC(=O)[C@H](Cc2c[nH]cn2)NC(=O)[C@H](CCCNC(=N)N)NC(=O)[C@H]2C[C@H](C2)NC(=O)[C@H]([C@@H](C)O)NC(=O)[C@H](Cc2c[nH]cn2)NC(=O)[C@@H]2CCCN2C(=O)[C@H](CO)NC(=O)[C@H](CCCNC(=N)N)NC(=O)[C@H](CCCNC(=N)N)NC(=O)[C@@H]2CCC[C@@H]2NC(=O)[C@@H]2CCCN2C1=O` [IB5γ^211γ^1, ^AcyVPβ^1RRSPHTγ^1RHNc-NH2] ({CH2CO}-[dY]VP[X1]RRSPHT[Acbc(cis-1,3)]RHN[dC]-NH2; thioether N-15), on Fc-tagged human IFNGR1, the Kd was 17 ± 5 nM and the kon amounted to 320000 ± 50000 M⁻¹ s⁻¹. In addition, in data set [1], the IC50 was 27 ± 4 nM. In addition, in the data set with HEK-Dual IFN-γ cells, the cytotoxicity entry is listed as “none of them exhibited notable cytotoxicity up to 50 μM”. Besides, the half-life in data set [2] is 2040 ± 120 min.

In the case of `CC(C)[C@@H]1NC(=O)[C@@H](Cc2ccc(O)cc2)NC(=O)CSC[C@H](C(N)=O)NC(=O)[C@H](CC(N)=O)NC(=O)[C@H]2C[C@H](C2)NC(=O)[C@H](CCCN)NC(=O)[C@@H]2CCCN2C(=O)[C@H]([C@@H](C)O)NC(=O)[C@H](CCCN)NC(=O)[C@H](CCCN)NC(=O)[C@H](CO)NC(=O)[C@H](CCCNC(=N)N)NC(=O)[C@H](CCCNC(=N)N)NC(=O)[C@@H]2CCC[C@@H]2NC(=O)[C@@H]2CCCN2C1=O` [IB4γ^213γ^1Orn, ^AcyVPβ^1RRSOOTPOγ^1Nc-NH2] ({CH2CO}-[dY]VP[X1]RRS[Orn][Orn]TP[Orn][Acbc(cis-1,3)]N[dC]-NH2; thioether N-15), at Fc-tagged human IFNGR1, the Kd came out at 12 ± 1 nM and the kon was determined as 4.7e+06 ± 600000 M⁻¹ s⁻¹. Moreover, the IC50 in data set [1] turned out to be 15 ± 5 nM. Besides, in the data set on HEK-Dual IFN-γ cells, the cytotoxicity result was “none of them exhibited notable cytotoxicity up to 50 μM”. In addition, the half-life in data set [2] is 2940 ± 240 min.
